The values below come from ChEMBL document CHEMBL5260810, “Inhibition of bromodomain-containing protein 9 for the prevention of epigenetically-defined drug resistance” (Bioorg Med Chem Lett, 2017).

Chain of Bromodomain-containing protein 2 (P25440 whole entry, the tested form may be a part, canonical isoform): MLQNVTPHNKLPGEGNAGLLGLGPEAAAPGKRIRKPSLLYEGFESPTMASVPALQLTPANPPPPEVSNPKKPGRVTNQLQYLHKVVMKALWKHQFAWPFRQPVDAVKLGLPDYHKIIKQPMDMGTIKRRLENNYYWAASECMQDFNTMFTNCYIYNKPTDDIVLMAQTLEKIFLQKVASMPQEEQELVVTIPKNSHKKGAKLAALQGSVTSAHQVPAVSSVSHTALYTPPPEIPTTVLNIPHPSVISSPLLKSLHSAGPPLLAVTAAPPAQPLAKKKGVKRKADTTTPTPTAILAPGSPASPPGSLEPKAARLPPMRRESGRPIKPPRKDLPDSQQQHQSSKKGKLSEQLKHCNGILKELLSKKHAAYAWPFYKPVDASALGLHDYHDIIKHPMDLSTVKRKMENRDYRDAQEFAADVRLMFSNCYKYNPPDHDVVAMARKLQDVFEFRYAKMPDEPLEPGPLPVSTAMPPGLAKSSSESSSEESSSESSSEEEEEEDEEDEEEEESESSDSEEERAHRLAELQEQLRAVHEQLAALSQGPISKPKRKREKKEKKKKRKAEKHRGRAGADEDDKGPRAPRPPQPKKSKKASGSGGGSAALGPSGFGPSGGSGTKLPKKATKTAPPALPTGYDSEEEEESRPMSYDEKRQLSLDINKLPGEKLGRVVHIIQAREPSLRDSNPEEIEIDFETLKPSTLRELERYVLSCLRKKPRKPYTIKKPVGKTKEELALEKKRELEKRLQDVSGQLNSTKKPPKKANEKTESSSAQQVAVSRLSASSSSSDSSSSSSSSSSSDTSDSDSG
Chain of Histone acetyltransferase KAT2A (Q92830 whole entry, the tested form may be a part): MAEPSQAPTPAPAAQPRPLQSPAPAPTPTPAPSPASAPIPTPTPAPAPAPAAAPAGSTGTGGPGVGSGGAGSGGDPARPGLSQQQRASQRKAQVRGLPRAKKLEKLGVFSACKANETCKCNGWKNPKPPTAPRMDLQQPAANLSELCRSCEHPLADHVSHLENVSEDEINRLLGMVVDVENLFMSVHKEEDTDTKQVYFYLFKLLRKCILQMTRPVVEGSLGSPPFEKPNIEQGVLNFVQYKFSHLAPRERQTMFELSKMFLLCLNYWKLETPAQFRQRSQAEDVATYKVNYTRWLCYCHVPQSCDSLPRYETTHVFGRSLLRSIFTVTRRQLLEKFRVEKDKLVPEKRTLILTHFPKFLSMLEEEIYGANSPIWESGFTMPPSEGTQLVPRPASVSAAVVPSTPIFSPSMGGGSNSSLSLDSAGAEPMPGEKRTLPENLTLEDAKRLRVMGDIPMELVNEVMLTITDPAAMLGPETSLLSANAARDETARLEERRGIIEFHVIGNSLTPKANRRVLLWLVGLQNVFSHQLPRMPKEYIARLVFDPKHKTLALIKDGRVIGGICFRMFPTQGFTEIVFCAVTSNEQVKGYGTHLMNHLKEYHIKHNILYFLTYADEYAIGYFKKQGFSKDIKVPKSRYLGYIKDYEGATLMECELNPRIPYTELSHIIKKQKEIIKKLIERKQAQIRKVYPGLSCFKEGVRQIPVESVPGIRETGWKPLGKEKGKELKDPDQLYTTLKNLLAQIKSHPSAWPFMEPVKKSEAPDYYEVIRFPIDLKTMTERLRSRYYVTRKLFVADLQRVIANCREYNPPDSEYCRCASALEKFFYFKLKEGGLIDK
Chain of Bromodomain-containing protein 3 (Q15059 whole entry, the tested form may be a part): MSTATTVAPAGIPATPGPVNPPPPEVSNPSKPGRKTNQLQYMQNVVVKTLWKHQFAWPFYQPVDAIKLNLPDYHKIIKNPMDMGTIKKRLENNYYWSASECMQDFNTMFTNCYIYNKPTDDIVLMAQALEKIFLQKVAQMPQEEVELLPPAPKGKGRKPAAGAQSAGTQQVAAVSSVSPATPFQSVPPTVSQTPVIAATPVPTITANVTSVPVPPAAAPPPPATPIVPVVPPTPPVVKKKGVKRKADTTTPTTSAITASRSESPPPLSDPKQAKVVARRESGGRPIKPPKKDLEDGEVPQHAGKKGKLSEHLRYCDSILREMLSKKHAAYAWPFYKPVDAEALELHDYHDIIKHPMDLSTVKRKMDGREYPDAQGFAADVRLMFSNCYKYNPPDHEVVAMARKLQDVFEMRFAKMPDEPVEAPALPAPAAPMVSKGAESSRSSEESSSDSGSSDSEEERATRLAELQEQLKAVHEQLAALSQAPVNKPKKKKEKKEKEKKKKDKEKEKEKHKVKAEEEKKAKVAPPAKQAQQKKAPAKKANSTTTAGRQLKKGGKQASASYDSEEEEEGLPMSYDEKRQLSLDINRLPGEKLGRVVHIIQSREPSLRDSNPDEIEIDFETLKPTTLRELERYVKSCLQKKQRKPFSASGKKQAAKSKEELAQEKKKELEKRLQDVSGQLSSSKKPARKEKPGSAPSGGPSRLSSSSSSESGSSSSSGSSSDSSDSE

The first test has as its target Bromodomain-containing protein 2 (Homo sapiens, UniProt P25440). Put plainly: Binding affinity to human partial length BRD2 bromodomain 1/2 isoform 1 (K71 to D455 residues) by BROMOscan assay.
Settings: not given
Turning to `C/C=C/Cn1cc(-c2ccc(C(=O)N3CCOCC3)cc2)c2cc[nH]c2c1=O`, the Kd was found to be 2.3 µM.

`C/C=C/Cn1cc(-c2cc(OC)c(C(C)(C)O)cc2OC)c2cc(C)[nH]c2c1=O` came in with a Kd of 1.7 µM.

The next test concerns SU-DHL-1. Briefly: Cytotoxicity against human SU-DHL-1 cells measured after 8 days. Type of test: functional, cell-based. As to conditions: SU-DHL-1, 192 h.
Consider `C/C=C/Cn1cc(-c2ccc(C(=O)N3CCOCC3)cc2)c2cc[nH]c2c1=O`, for which the midpoint of inhibition, the IC50, lay at 20 µM.

Another test deals with Sodium-dependent serotonin transporter (Homo sapiens) (UniProt P31645). Briefly: Displacement of [3H]-imipramine from recombinant human 5-HT transporter at 10 uM after 60 mins by scintillation counting relative to control.
Chain of Sodium-dependent serotonin transporter (Homo sapiens) (P31645 whole entry, looked up): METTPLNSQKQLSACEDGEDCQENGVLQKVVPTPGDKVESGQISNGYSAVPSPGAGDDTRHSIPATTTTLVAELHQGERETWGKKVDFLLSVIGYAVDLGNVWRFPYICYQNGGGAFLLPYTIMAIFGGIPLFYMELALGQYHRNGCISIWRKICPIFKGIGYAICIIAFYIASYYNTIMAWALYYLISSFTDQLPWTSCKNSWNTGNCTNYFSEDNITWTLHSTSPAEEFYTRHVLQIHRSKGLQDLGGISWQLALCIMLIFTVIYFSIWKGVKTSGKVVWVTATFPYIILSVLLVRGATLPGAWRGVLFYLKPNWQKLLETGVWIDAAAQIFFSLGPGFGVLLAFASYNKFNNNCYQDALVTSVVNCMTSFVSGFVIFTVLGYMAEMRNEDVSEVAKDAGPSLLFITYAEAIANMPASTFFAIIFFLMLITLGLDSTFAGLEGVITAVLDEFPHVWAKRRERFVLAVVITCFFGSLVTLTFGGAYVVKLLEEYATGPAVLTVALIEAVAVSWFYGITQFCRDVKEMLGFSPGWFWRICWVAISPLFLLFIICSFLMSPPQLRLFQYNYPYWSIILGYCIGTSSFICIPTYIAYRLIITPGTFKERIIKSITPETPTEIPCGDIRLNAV
Settings: not given
With `C/C=C/Cn1cc(-c2ccc(C(=O)N3CCOCC3)cc2)c2cc[nH]c2c1=O`, the Activity came out at 3%.

A further test deals with T1, E3 ubiquitin-protein ligase TRIM33 (Homo sapiens, UniProt Q9UPN9).
T1 sequence (Q9UPN9 whole entry): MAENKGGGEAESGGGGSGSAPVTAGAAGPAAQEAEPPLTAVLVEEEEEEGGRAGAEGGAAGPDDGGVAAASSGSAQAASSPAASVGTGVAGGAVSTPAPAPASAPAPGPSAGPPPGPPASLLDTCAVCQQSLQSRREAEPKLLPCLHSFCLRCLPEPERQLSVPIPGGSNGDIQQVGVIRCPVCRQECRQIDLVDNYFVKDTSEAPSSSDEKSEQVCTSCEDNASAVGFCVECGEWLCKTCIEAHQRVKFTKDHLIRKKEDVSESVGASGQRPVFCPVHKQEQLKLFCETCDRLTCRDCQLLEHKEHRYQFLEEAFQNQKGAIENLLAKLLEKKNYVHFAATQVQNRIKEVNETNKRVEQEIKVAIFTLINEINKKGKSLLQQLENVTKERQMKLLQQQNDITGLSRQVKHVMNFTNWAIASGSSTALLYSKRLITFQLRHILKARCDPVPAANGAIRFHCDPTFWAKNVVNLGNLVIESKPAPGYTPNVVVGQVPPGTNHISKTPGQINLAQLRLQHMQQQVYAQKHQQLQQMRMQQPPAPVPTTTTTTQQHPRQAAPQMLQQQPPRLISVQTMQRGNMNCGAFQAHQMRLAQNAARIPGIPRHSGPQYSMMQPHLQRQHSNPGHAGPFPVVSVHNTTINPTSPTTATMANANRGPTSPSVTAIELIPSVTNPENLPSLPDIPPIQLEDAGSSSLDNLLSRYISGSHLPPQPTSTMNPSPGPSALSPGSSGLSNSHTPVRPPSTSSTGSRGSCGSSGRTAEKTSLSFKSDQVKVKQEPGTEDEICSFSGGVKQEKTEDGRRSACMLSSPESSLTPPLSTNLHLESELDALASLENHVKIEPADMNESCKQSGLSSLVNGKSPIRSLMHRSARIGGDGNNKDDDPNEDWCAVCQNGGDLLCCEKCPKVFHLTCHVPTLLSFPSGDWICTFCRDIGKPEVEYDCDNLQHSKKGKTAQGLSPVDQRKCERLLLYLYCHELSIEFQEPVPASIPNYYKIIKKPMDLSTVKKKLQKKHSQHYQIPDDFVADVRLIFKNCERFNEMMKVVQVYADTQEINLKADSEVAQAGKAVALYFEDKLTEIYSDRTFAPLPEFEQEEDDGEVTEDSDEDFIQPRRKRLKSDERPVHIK
Put plainly: Binding affinity to human partial length TRIM33 (D882 to A1087 residues) expressed in bacterial expression system by BROMOscan assay.
Settings: not given
`C/C=C/Cn1cc(-c2ccc(C(=O)N3CCOCC3)cc2)c2cc[nH]c2c1=O` returned a Kd greater than 10 µM.

For the compound `C/C=C/Cn1cc(-c2cc(OC)c(C(C)(C)O)cc2OC)c2cc(C)[nH]c2c1=O`, the Kd was greater than 10 µM.

In another test the target is Serine/threonine-protein kinase pim-1 (Homo sapiens) (UniProt P11309). Briefly: Inhibition of PIM1 (unknown origin) at 1 uM relative to control.
Chain of Serine/threonine-protein kinase pim-1 (Homo sapiens) (P11309 whole entry, looked up): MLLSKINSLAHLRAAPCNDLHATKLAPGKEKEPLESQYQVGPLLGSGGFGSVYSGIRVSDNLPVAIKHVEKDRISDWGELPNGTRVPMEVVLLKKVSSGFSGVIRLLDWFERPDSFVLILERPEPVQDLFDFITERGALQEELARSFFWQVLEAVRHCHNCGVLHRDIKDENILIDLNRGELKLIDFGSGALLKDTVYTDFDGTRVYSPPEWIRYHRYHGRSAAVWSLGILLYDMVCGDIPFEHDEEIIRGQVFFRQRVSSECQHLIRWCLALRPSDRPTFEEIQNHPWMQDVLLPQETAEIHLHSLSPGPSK
Settings: not given
With `C/C=C/Cn1cc(-c2ccc(C(=O)N3CCOCC3)cc2)c2cc[nH]c2c1=O`, the inhibition is -3.4%.

A further test concerns the target Histone acetyltransferase KAT2A (Homo sapiens, UniProt Q92830). Put plainly: Binding affinity to human partial length GCN5L2 (E726 to K837 residues) expressed in bacterial expression system by BROMOscan assay.
Settings: not given
As for `C/C=C/Cn1cc(-c2ccc(C(=O)N3CCOCC3)cc2)c2cc[nH]c2c1=O`, the Kd is greater than 10 µM.

`C/C=C/Cn1cc(-c2cc(OC)c(C(C)(C)O)cc2OC)c2cc(C)[nH]c2c1=O` returned a Kd of 0.16 µM.

Test system in another test: not listed separately
Put plainly: Cytotoxicity against human OCI-M2 cells measured after 8 days. Type of test: functional, cell-based. The note with it: OCI-M2, 192 h.
`C/C=C/Cn1cc(-c2ccc(C(=O)N3CCOCC3)cc2)c2cc[nH]c2c1=O` yielded an IC50 of 5.21 µM.

The subject of a further test is HCC70. Briefly: Cytotoxicity against human HCC70 cells measured after 8 days. Type of test: functional, cell-based. As to conditions: HCC70, 192 h.
Compound `C/C=C/Cn1cc(-c2ccc(C(=O)N3CCOCC3)cc2)c2cc[nH]c2c1=O` displayed an IC50 of 20 µM.

In a further test the test system is CX-1. Briefly: Cytotoxicity against human CX-1 cells measured after 8 days. Type of test: functional, cell-based. The note with it: CX-1, 192 h.
Compound `C/C=C/Cn1cc(-c2ccc(C(=O)N3CCOCC3)cc2)c2cc[nH]c2c1=O` yielded an IC50 of 20 µM.

The next test deals with HCT-15. Briefly: Cytotoxicity against human HCT-15 cells measured after 8 days. The format is functional, cell-based. The note with it: HCT-15, 192 h.
For `C/C=C/Cn1cc(-c2ccc(C(=O)N3CCOCC3)cc2)c2cc[nH]c2c1=O`, half-maximal inhibition (IC50) required 20 µM.

Test system in a further test: not listed separately
Briefly: Cytotoxicity against human HCC461 cells measured after 8 days. The format is functional, cell-based. As to conditions: HCC461, 192 h.
The compound `C/C=C/Cn1cc(-c2ccc(C(=O)N3CCOCC3)cc2)c2cc[nH]c2c1=O` had an IC50 of 20 µM.

Another test relates to MFM-223. Briefly: Cytotoxicity against human MFM-223 cells measured after 8 days. The note with it: MFM-223, 192 h. The format is functional, cell-based.
Take `C/C=C/Cn1cc(-c2ccc(C(=O)N3CCOCC3)cc2)c2cc[nH]c2c1=O`: the IC50 was 20 µM.

Another test concerns the target Bromodomain-containing protein 3 (Homo sapiens, UniProt Q15059). Briefly: Binding affinity to human partial length BRD3 bromodomain 1 (P24 to E144 residues) expressed in bacterial expression system by BROMOscan assay.
Settings: not given
`C/C=C/Cn1cc(-c2ccc(C(=O)N3CCOCC3)cc2)c2cc[nH]c2c1=O` showed a Kd of 6.3 µM.

`C/C=C/Cn1cc(-c2cc(OC)c(C(C)(C)O)cc2OC)c2cc(C)[nH]c2c1=O` had a Kd of 9.2 µM.

The subject of another test is HCC1937. Put plainly: Cytotoxicity against human HCC1937 cells measured after 8 days. As to conditions: HCC1937, 192 h. The format is functional, cell-based.
For `C/C=C/Cn1cc(-c2ccc(C(=O)N3CCOCC3)cc2)c2cc[nH]c2c1=O`, the IC50 stood at 20 µM.

Another test deals with RL. Put plainly: Cytotoxicity against human RL cells measured after 8 days. The format is functional, cell-based. As to conditions: 192 h.
`C/C=C/Cn1cc(-c2ccc(C(=O)N3CCOCC3)cc2)c2cc[nH]c2c1=O`: the IC50 stood at 16.6 µM.

The next test relates to EOL1. Briefly: Cytotoxicity against human EOL1 cells measured after 8 days. The format is functional, cell-based. The note with it: EOL1, 192 h.
For the compound `C/C=C/Cn1cc(-c2ccc(C(=O)N3CCOCC3)cc2)c2cc[nH]c2c1=O`, the midpoint of inhibition, the IC50, lay at 0.95 µM.

For a further test, the system named is MDA-MB-436. Briefly: Cytotoxicity against human MDA-MB-436 cells measured after 8 days. As to conditions: MDA-MB-436, 192 h. The format is functional, cell-based.
The compound `C/C=C/Cn1cc(-c2ccc(C(=O)N3CCOCC3)cc2)c2cc[nH]c2c1=O` yielded an IC50 of 20 µM.

The next test has as its system COLO 320. Put plainly: Cytotoxicity against human COLO 320 cells measured after 8 days. The format is functional, cell-based. As to conditions: COLO 320, 192 h.
In the case of `C/C=C/Cn1cc(-c2ccc(C(=O)N3CCOCC3)cc2)c2cc[nH]c2c1=O`, the half-inhibitory concentration (IC50) came to 20 µM.

Test system in another test: not listed separately
Briefly: Cytotoxicity against human OVCA429 cells measured after 8 days. The format is functional, cell-based. As to conditions: OVCA429, 192 h.
As for `C/C=C/Cn1cc(-c2ccc(C(=O)N3CCOCC3)cc2)c2cc[nH]c2c1=O`, inhibition was half-maximal at 20 µM (IC50).

For a further test, the system named is EVSA-T. Put plainly: Cytotoxicity against human EVSA-T cells measured after 8 days. Type of test: functional, cell-based. As to conditions: 192 h.
`C/C=C/Cn1cc(-c2ccc(C(=O)N3CCOCC3)cc2)c2cc[nH]c2c1=O` gave an IC50 of 20 µM.

Test system in a further test: not listed separately
Put plainly: Cytotoxicity against human HCC2279 cells measured after 8 days. The format is functional, cell-based. As to conditions: HCC2279, 192 h.
Take `C/C=C/Cn1cc(-c2ccc(C(=O)N3CCOCC3)cc2)c2cc[nH]c2c1=O`: the IC50 came to 20 µM.
